# Assay results published in patent US5358951A, “Angiotensin II receptor blocking 2, 3, 6 substituted quinazolinones” (American Cyanamid Company, priority 1993, dated 1994).
# Tested on: vasopressor response of angiotensin II
# Assay: AII Challenge: antagonism of angiotensin II vasopressor response
# Type: in vivo
# Conditions: for inhibition in vivo at 1 mg/kg / inhibition in vivo at 3 mg/kg: Rattus norvegicus; for inhibition in vivo at 1 mg/kg: iv; for inhibition in vivo at 3 mg/kg: po
# Procedure, shortened: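 Percent antagonism is based on the systolic blood pressure rise (mmHg) to i.v. angiotensin II at 0.05 and 0.1 ug/kg. Each rat's own predose response was taken as 100%. Challenges were repeated from 30 to 300 min after i.v., i.p. or oral compound in cannulated conscious male SHR, 16-20 weeks old.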
smiles,measurement,setting,value
"CCCCc1nc2ccc(C3(C(=O)OC)CC4CCCN4O3)cc2c(=O)n1Cc1ccc(-c2ccccc2-c2nnn[nH]2)cc1 (mixture of isomers) [Example 78, Trans(+/-)-Methyl-2-[2-butyl-3,4-dihydro-4-oxo-3-[[2'-(1H-tetrazol-5-yl)[1,1'-biphenyl]-4-yl]methyl-6-quinazolinyl]hexahydropyrrolo[1,2-b]isoxazole-2-carboxylate]",Response Average Change,"1 mg/kg i.v., AII 0.05 mcg/kg IV, 30 min post dose",5 mmHg
same,Response Average Change,"1 mg/kg i.v., AII 0.05 mcg/kg IV, 60 min post dose",12.5 mmHg
same,Response Average Change,"1 mg/kg i.v., AII 0.05 mcg/kg IV, 90 min post dose",7.5 mmHg
same,Response Average Change,"1 mg/kg i.v., AII 0.05 mcg/kg IV, 120 min post dose",10 mmHg
same,Response Average Change,"1 mg/kg i.v., AII 0.05 mcg/kg IV, 180 min post dose",11 mmHg
same,Response Average Change,"1 mg/kg i.v., AII 0.05 mcg/kg IV, 240 min post dose",12.5 mmHg
same,Response Average Change,"1 mg/kg i.v., AII 0.05 mcg/kg IV, 300 min post dose",5 mmHg
same,Response Average Change,"1 mg/kg i.v., AII 0.1 mcg/kg IV, 30 min post dose",15 mmHg
same,Response Average Change,"1 mg/kg i.v., AII 0.1 mcg/kg IV, 60 min post dose",12.5 mmHg
same,Response Average Change,"1 mg/kg i.v., AII 0.1 mcg/kg IV, 90 min post dose",15 mmHg
same,Response Average Change,"1 mg/kg i.v., AII 0.1 mcg/kg IV, 120 min post dose",17.5 mmHg
same,Response Average Change,"1 mg/kg i.v., AII 0.1 mcg/kg IV, 180 min post dose",12.5 mmHg
same,Response Average Change,"1 mg/kg i.v., AII 0.1 mcg/kg IV, 240 min post dose",12.5 mmHg
same,Response Average Change,"1 mg/kg i.v., AII 0.1 mcg/kg IV, 300 min post dose",17.5 mmHg
same,Response Average Change,"3 mg/kg P.O., AII 0.05 mcg/kg IV, 30 min post dose",27.5 mmHg
same,Response Average Change,"3 mg/kg P.O., AII 0.05 mcg/kg IV, 60 min post dose",22.5 mmHg
same,Response Average Change,"3 mg/kg P.O., AII 0.05 mcg/kg IV, 90 min post dose",22.5 mmHg
same,Response Average Change,"3 mg/kg P.O., AII 0.05 mcg/kg IV, 120 min post dose",17.5 mmHg
same,Response Average Change,"3 mg/kg P.O., AII 0.05 mcg/kg IV, 180 min post dose",19 mmHg
same,Response Average Change,"3 mg/kg P.O., AII 0.05 mcg/kg IV, 240 min post dose",19 mmHg
same,Response Average Change,"3 mg/kg P.O., AII 0.05 mcg/kg IV, 300 min post dose",27.5 mmHg
same,Response Average Change,"3 mg/kg P.O., AII 0.1 mcg/kg IV, 30 min post dose",35 mmHg
same,Response Average Change,"3 mg/kg P.O., AII 0.1 mcg/kg IV, 60 min post dose",25 mmHg
same,Response Average Change,"3 mg/kg P.O., AII 0.1 mcg/kg IV, 90 min post dose",17.5 mmHg
same,Response Average Change,"3 mg/kg P.O., AII 0.1 mcg/kg IV, 120 min post dose",15 mmHg
same,Response Average Change,"3 mg/kg P.O., AII 0.1 mcg/kg IV, 180 min post dose",17.5 mmHg
same,Response Average Change,"3 mg/kg P.O., AII 0.1 mcg/kg IV, 240 min post dose",17.5 mmHg
same,Response Average Change,"3 mg/kg P.O., AII 0.1 mcg/kg IV, 300 min post dose",25 mmHg
same,inhibition in vivo at 1 mg/kg,"0.5 h, 1 mg/kg i.v., AII 0.05 mcg/kg IV, 30 min post dose",80%
same,inhibition in vivo at 1 mg/kg,"0.5 h, 1 mg/kg i.v., AII 0.1 mcg/kg IV, 30 min post dose",45%
same,inhibition in vivo at 1 mg/kg,"1 h, 1 mg/kg i.v., AII 0.05 mcg/kg IV, 60 min post dose",50%
same,inhibition in vivo at 1 mg/kg,"1 h, 1 mg/kg i.v., AII 0.1 mcg/kg IV, 60 min post dose",55%
same,inhibition in vivo at 1 mg/kg,"2 h, 1 mg/kg i.v., AII 0.05 mcg/kg IV, 120 min post dose",60%
same,inhibition in vivo at 1 mg/kg,"2 h, 1 mg/kg i.v., AII 0.1 mcg/kg IV, 120 min post dose",36%
same,inhibition in vivo at 1 mg/kg,"3 h, 1 mg/kg i.v., AII 0.05 mcg/kg IV, 180 min post dose",56%
same,inhibition in vivo at 1 mg/kg,"3 h, 1 mg/kg i.v., AII 0.1 mcg/kg IV, 180 min post dose",55%
same,inhibition in vivo at 1 mg/kg,"4 h, 1 mg/kg i.v., AII 0.05 mcg/kg IV, 240 min post dose",50%
same,inhibition in vivo at 1 mg/kg,"4 h, 1 mg/kg i.v., AII 0.1 mcg/kg IV, 240 min post dose",55%
same,inhibition in vivo at 1 mg/kg,"5 h, 1 mg/kg i.v., AII 0.05 mcg/kg IV, 300 min post dose",80%
same,inhibition in vivo at 1 mg/kg,"5 h, 1 mg/kg i.v., AII 0.1 mcg/kg IV, 300 min post dose",36%
same,inhibition in vivo at 1 mg/kg,"[…], 1 mg/kg i.v., AII 0.05 mcg/kg IV, 90 min post dose",70%
same,inhibition in vivo at 1 mg/kg,"[…], 1 mg/kg i.v., AII 0.1 mcg/kg IV, 90 min post dose",45%
same,inhibition in vivo at 3 mg/kg,"0.5 h, 3 mg/kg P.O., AII 0.05 mcg/kg IV, 30 min post dose",0%
same,inhibition in vivo at 3 mg/kg,"0.5 h, 3 mg/kg P.O., AII 0.1 mcg/kg IV, 30 min post dose",-17%
same,inhibition in vivo at 3 mg/kg,"1 h, 3 mg/kg P.O., AII 0.05 mcg/kg IV, 60 min post dose",18%
same,inhibition in vivo at 3 mg/kg,"1 h, 3 mg/kg P.O., AII 0.1 mcg/kg IV, 60 min post dose",17%
same,inhibition in vivo at 3 mg/kg,"2 h, 3 mg/kg P.O., AII 0.05 mcg/kg IV, 120 min post dose",36%
same,inhibition in vivo at 3 mg/kg,"2 h, 3 mg/kg P.O., AII 0.1 mcg/kg IV, 120 min post dose",50%
same,inhibition in vivo at 3 mg/kg,"3 h, 3 mg/kg P.O., AII 0.05 mcg/kg IV, 180 min post dose",31%
same,inhibition in vivo at 3 mg/kg,"3 h, 3 mg/kg P.O., AII 0.1 mcg/kg IV, 180 min post dose",42%
same,inhibition in vivo at 3 mg/kg,"4 h, 3 mg/kg P.O., AII 0.05 mcg/kg IV, 240 min post dose",31%
same,inhibition in vivo at 3 mg/kg,"4 h, 3 mg/kg P.O., AII 0.1 mcg/kg IV, 240 min post dose",42%
same,inhibition in vivo at 3 mg/kg,"5 h, 3 mg/kg P.O., AII 0.05 mcg/kg IV, 300 min post dose",0%
same,inhibition in vivo at 3 mg/kg,"5 h, 3 mg/kg P.O., AII 0.1 mcg/kg IV, 300 min post dose",17%
same,inhibition in vivo at 3 mg/kg,"[…], 3 mg/kg P.O., AII 0.05 mcg/kg IV, 90 min post dose",18%
same,inhibition in vivo at 3 mg/kg,"[…], 3 mg/kg P.O., AII 0.1 mcg/kg IV, 90 min post dose",42%
